100 compounds from ChEMBL document CHEMBL3507680, “University of Dundee, Gates Library screen for HepG2 cell viability” can be followed below.

The structures appear in SMILES notation.

The data set is described as follows: Human HepG2 cell viability assay in 384 well format. It is filed as toxicity, cell-based. On the set-up: dose 125 nL, time 70.5 hour; cytotoxicity at 70.5 h: concentration not given beside the values. The note with it: HepG2 cells, read-out: Inhibition.

In the case of `COc1ccc(-n2ncc3c2NC(=O)CSC3C(C)C)cc1` (stereo not given), the cytotoxicity at 70.5 h is -3.9%.

As to `O=C(CN1C(=O)CC2(CCCC2)C1=O)NCCc1nccs1`, the cytotoxicity at 70.5 h is -14.1%.

On to `Cc1nn(-c2ccc(C(=O)O)cc2)c2c1C(c1ccsc1)SCC(=O)N2` (stereo not given), for which the cytotoxicity at 70.5 h was -1.43%.

As for `COCCn1ccc2c(C(=O)Nc3nc4c(s3)CCC4)cccc21`, the cytotoxicity at 70.5 h was -1.37%.

For the compound `CC(C)CC1SCC(=O)Nc2c1cnn2-c1ccccc1F` (stereo not given), the cytotoxicity at 70.5 h is -22.8%.

Take `CC(C)Cn1cc(C(=O)NC2CCS(=O)(=O)C2)c2ccccc2c1=O` (stereo not given): the cytotoxicity at 70.5 h is -13.3%.

Turning to `Cc1cc(C)nc(N2CCC(C(=O)Nc3n[nH]c(C(C)C)n3)CC2)n1`, the cytotoxicity at 70.5 h is -11.5%.

`Cn1ccc2cc(C(=O)Nc3nc[nH]n3)ccc21`: the cytotoxicity at 70.5 h was determined as 15.8%.

`Cc1cc(C)nc(-n2nc(C)c3c2NC(=O)CSC3c2cnn(C)c2)n1` (stereo not given): the cytotoxicity at 70.5 h is -31.4%.

For `CC(C)c1nn2c(-c3cnn(C)c3)nnc2s1`, the cytotoxicity at 70.5 h is -9.47%.

Turning to `Cn1ccc2ccc(C(=O)Nc3nc[nH]n3)cc21`, the cytotoxicity at 70.5 h came to 13.7%.

For the compound `Cc1cc(C)nc(N2CCC(C(=O)Nc3ncc[nH]3)CC2)n1`, the cytotoxicity at 70.5 h was -7.67%.

Regarding `CN1CCN(CCCNC(=O)CCc2nc3cc(Br)cnc3[nH]2)CC1`, the cytotoxicity at 70.5 h was -31%.

As for `COCc1nnc(NC(=O)c2cn(C(C)C)c3ccc(OC)cc23)s1`, the cytotoxicity at 70.5 h is -10.1%.

`Cc1cc(O)cc(=O)n1CCCC(=O)Nc1n[nH]c2cc(Br)ccc12`: the cytotoxicity at 70.5 h is -13.4%.

For the compound `CC(C)C1SCC(=O)Nc2c1cnn2-c1ccc(F)cc1` (stereo not given), the cytotoxicity at 70.5 h is -1.99%.

For the compound `Cc1nn(-c2ncccn2)c2c1C(c1cnn(C)c1C)SCC(=O)N2` (stereo not given), the cytotoxicity at 70.5 h was -22.5%.

For the compound `CC(C)C1SCC(=O)Nc2c1c(O)nn2C1CCCC1` (stereo not given), the cytotoxicity at 70.5 h was -23.1%.

On to `O=c1c(CN2CCCCCC2)coc(O)c1CN1CCOCC1`, for which the cytotoxicity at 70.5 h is -2.1%.

Consider `C[C@@H](O)CNC(=O)CCc1nc2cccnc2[nH]1`, for which the cytotoxicity at 70.5 h is -23.4%.

Take `Cn1ccc2cc(C(=O)NC3CCS(=O)(=O)C3)ccc21` (stereo not given): the cytotoxicity at 70.5 h was -10.9%.

As for `COc1ccc2cc(NC(=O)CCNc3nc(C)cc(C)n3)cnc2c1`, the cytotoxicity at 70.5 h is -24.1%.

Turning to `Cc1ccc(S(=O)(=O)c2ncccc2CN2CCOCC2)cc1`, the cytotoxicity at 70.5 h is -17.9%.

Take `O=C1CCC(c2ccccc2)=NN1CN1CCCCCC1`: the cytotoxicity at 70.5 h was -14%.

For the compound `CC(C)CC1SCC(=O)Nc2c1cnn2C1CCCC1` (stereo not given), the cytotoxicity at 70.5 h was -18.7%.

`Cc1c(C2SCC(=O)Nc3c2c(O)nn3C(C)C)cnn1C` (stereo not given): the cytotoxicity at 70.5 h was -26.6%.

With `CC(C)n1ncc2c1NC(=O)CSC2C(F)(F)F` (stereo not given), the cytotoxicity at 70.5 h was -21%.

Take `COc1ccc2cc(NC(=O)CCNc3ncccn3)cnc2c1`: the cytotoxicity at 70.5 h was -29.1%.

For the compound `O=C(NCCc1nccs1)c1n[nH]c2c1CCC2`, the cytotoxicity at 70.5 h was -11.1%.

On to `CC(C)c1sc(Br)nc1C(=O)NCc1ccco1`, for which the cytotoxicity at 70.5 h turned out to be 32.2%.

Turning to `COc1cccc2c1ccn2CCNC(=O)CCNc1ncccn1`, the cytotoxicity at 70.5 h was -18%.

As to `CS(=O)(=O)N1CCN(C(=O)c2cc(-c3ccc(Br)s3)n[nH]2)CC1`, the cytotoxicity at 70.5 h is -10.2%.

`Cc1cc(C)nc(N2CCC(C(=O)Nc3n[nH]c(C)n3)CC2)n1`: the cytotoxicity at 70.5 h is -7.75%.

Turning to `COc1ccccc1-c1cc(C(=O)Nc2nc[nH]n2)[nH]n1`, the cytotoxicity at 70.5 h is -12.9%.

Consider `COc1ccc(CNC(=O)CCc2nnc3ccccn3c2=O)cc1`, for which the cytotoxicity at 70.5 h was determined as 20.7%.

Take `Cn1cc(NC(=O)C2CC(=O)N(c3n[nH]c4cccc(F)c34)C2)cn1` (stereo not given): the cytotoxicity at 70.5 h is -26.5%.

Turning to `O=C(C1CC(=O)N(c2n[nH]c3cc(Br)ccc23)C1)N1CCSCC1` (stereo not given), the cytotoxicity at 70.5 h is -9.09%.

For `Cn1cnc2cc(CCC(=O)Nc3n[nH]c(C4CCCO4)n3)ccc21` (stereo not given), the cytotoxicity at 70.5 h turned out to be 1.89%.

For `Cc1cc(-c2nn3c(C(C)C)nnc3s2)on1`, the cytotoxicity at 70.5 h was -10.1%.

As to `O=C(Cn1cnc2sccc2c1=O)NCCc1nnc2ccccn12`, the cytotoxicity at 70.5 h is -11.3%.

`COCCn1cnc2ccc(NC(=O)CCCn3cccn3)cc2c1=O`: the cytotoxicity at 70.5 h was -7.81%.

Turning to `Cn1cc(C2SCC(=O)Nc3c2c(=O)[nH]n3C2CCOCC2)cn1` (stereo not given), the cytotoxicity at 70.5 h is 17.2%.

Regarding `CC(C)n1ccc2c(C(=O)NC3CN4CCC3CC4)cccc21` (stereo not given), the cytotoxicity at 70.5 h was -17.6%.

As for `CC(C)c1nc2cc(NC(=O)c3n[nH]c4c3CCC4)ccc2n1C`, the cytotoxicity at 70.5 h is -9.08%.

Regarding `COCCn1cnc2ccc(NC(=O)C3CC3)cc2c1=O`, the cytotoxicity at 70.5 h was -8.53%.

Take `COCCn1cnc2ccc(NC(=O)C(C)C)cc2c1=O`: the cytotoxicity at 70.5 h was -7.01%.

Turning to `O=C(Nc1nc[nH]n1)c1cc(-c2ccc(F)cc2)n[nH]1`, the cytotoxicity at 70.5 h was -14.4%.

Consider `Cc1nc(C(=O)N2CCN(S(C)(=O)=O)CC2)c(-c2ccccc2Cl)s1`, for which the cytotoxicity at 70.5 h is 16%.

As for `Cc1cc(C)n(-c2cccc(C(=O)Nc3n[nH]c(C4CCCO4)n3)c2)n1` (stereo not given), the cytotoxicity at 70.5 h is -8.19%.

With `Cc1cc(C(=O)Nc2n[nH]c(C3CC3)n2)c2c(C)nn(C)c2n1`, the cytotoxicity at 70.5 h is 25.6%.

For `COc1ccc(CC(=O)Nc2ccc3ncn(C(C)C)c(=O)c3c2)cc1`, the cytotoxicity at 70.5 h is -5.16%.

For `COc1ccc(CCC(=O)Nc2ccc3ncn(C)c(=O)c3c2)cc1`, the cytotoxicity at 70.5 h was -2.91%.

Consider `COc1cn(CC(=O)N2CCC(c3ccccc3)CC2)c(C)cc1=O`, for which the cytotoxicity at 70.5 h turned out to be 23.7%.

Regarding `COc1ccc2c(ccn2CCC(=O)Nc2n[nH]c(CC(C)C)n2)c1`, the cytotoxicity at 70.5 h turned out to be 24%.

Regarding `Cc1[nH]nc(-c2ccc(F)cc2)c1CC(=O)NCC1CCOCC1`, the cytotoxicity at 70.5 h was -9.72%.

With `COc1ccc(NC(=O)c2nc(C)sc2C)cn1`, the cytotoxicity at 70.5 h worked out at 28%.

On to `Cn1cnc2cc(CCC(=O)Nc3n[nH]c(C4CC4)n3)ccc21`, for which the cytotoxicity at 70.5 h turned out to be 17.9%.

`CC(C)Cc1nc(NC(=O)c2cccnc2)n[nH]1`: the cytotoxicity at 70.5 h was -14.7%.

In the case of `COC(=O)CNC(=O)c1nc(Br)sc1C(C)C`, the cytotoxicity at 70.5 h worked out at 42.9%.

For the compound `O=C1CSC(c2ccc(Cl)cc2Cl)c2c(n(C3CCOCC3)[nH]c2=O)N1` (stereo not given), the cytotoxicity at 70.5 h is -23.1%.

`COc1ccc(C(=O)Nc2n[nH]c(C3CCCO3)n2)cc1` (stereo not given): the cytotoxicity at 70.5 h came to 26.5%.

`COc1ccc2c(ccn2CC(=O)Nc2n[nH]c(CC(C)C)n2)c1`: the cytotoxicity at 70.5 h was -11.7%.

On to `CCN1CCCC1CNC(=O)Cc1c(C)n[nH]c1-c1ccc(OC)cc1` (stereo not given), for which the cytotoxicity at 70.5 h worked out at 24.8%.

Consider `CC(C)Cn1ccc2c(NC(=O)c3n[nH]c4c3CCC4)cccc21`, for which the cytotoxicity at 70.5 h was 5.24%.

As for `CC(=O)Nc1cccc2c1ccn2CC(=O)Nc1ncc[nH]1`, the cytotoxicity at 70.5 h was -5.41%.

In the case of `CN(C)C(=O)c1cccc(CN2CCN(CCO)CC2)c1`, the cytotoxicity at 70.5 h amounted to 38.5%.

Consider `CC(O)CN1CCN(Cc2cccc(C(=O)N3CCCCC3)c2)CC1` (stereo not given), for which the cytotoxicity at 70.5 h is 17.1%.

With `CC(O)CN1CCC(CN(C)Cc2cccc(C(=O)N(C)C)c2)CC1` (stereo not given), the cytotoxicity at 70.5 h was found to be 12.1%.

For the compound `CC(C)c1nc2c(n1C)CCN(Cc1nc(-c3ccco3)no1)C2`, the cytotoxicity at 70.5 h is -7.27%.

Turning to `COCCc1noc(CN2CCOC(CN(C)C)C2)n1` (stereo not given), the cytotoxicity at 70.5 h is -8.08%.

For `COc1c(CNC2CCc3ccccc32)c(C(C)C)nn1C` (stereo not given), the cytotoxicity at 70.5 h was -16.4%.

With `CN(C)CC1CN(Cc2nc(-c3cccnc3)no2)CCO1` (stereo not given), the cytotoxicity at 70.5 h is -12.3%.

Consider `COc1c(CNC2CCOc3c(Cl)cccc32)c(C(C)C)nn1C` (stereo not given), for which the cytotoxicity at 70.5 h amounted to 11.4%.

As for `CCCc1nc(C(C)(C)NC(=O)C2CC(=O)N(CC)C2)no1` (stereo not given), the cytotoxicity at 70.5 h is -13%.

In the case of `NC(=O)C1CCN(C(=O)c2ccn(-c3ccc(F)cc3)n2)CC1`, the cytotoxicity at 70.5 h worked out at 7.95%.

As for `CCc1nc(C)c(C(=O)NCCNC(=O)Cc2cccc(F)c2)s1`, the cytotoxicity at 70.5 h is -6.24%.

As to `CC(C)(C)c1nc(C(C)(C)NC(=O)C2CC(=O)N(CC3CC3)C2)no1` (stereo not given), the cytotoxicity at 70.5 h is -1.01%.

Turning to `COc1cc(CNCC(O)c2ccccc2F)cc2c1OCO2` (stereo not given), the cytotoxicity at 70.5 h is -14%.

On to `CCCc1nc(C(C)(C)NC(=O)C2CC(=O)N(C3CCCC3)C2)no1` (stereo not given), for which the cytotoxicity at 70.5 h was -11.9%.

In the case of `COc1c(CNCCNC(=O)c2ccc(C)c(F)c2)c(C)nn1C`, the cytotoxicity at 70.5 h was -4.84%.

`CCOc1cc(C)nc(N2CCN(C(=O)c3cc[nH]n3)CC2)n1`: the cytotoxicity at 70.5 h is -3.5%.

With `Cc1nc(C(=O)N2CCCC(c3cc(C(F)(F)F)[nH]n3)C2)c[nH]1` (stereo not given), the cytotoxicity at 70.5 h is -6.23%.

For `Cc1ccc(C(=O)N2CCCC(c3cc(C(F)(F)F)[nH]n3)C2)o1` (stereo not given), the cytotoxicity at 70.5 h is -5.23%.

Consider `Cc1ccc(C(=O)NS(=O)(=O)c2ccccc2F)c(=O)[nH]1`, for which the cytotoxicity at 70.5 h was -1.46%.

Regarding `Cc1ccc(CC(=O)N2CCOCC2c2ncon2)cc1` (stereo not given), the cytotoxicity at 70.5 h is -5.42%.

As to `CC1CCN(CCCNC(=O)NC(C)c2nncn2C)CC1` (stereo not given), the cytotoxicity at 70.5 h was -3.78%.

Take `Cn1ccc2c(C(=O)N3CCCC(c4nnc[nH]4)C3)cccc21` (stereo not given): the cytotoxicity at 70.5 h was 4.32%.

As for `CCc1nc(C2CCCN2CC(=O)NCCc2ccsc2)no1` (stereo not given), the cytotoxicity at 70.5 h is 0.0583%.

For the compound `CCOC1CCCN(C(=O)c2nn(-c3ccccc3F)cc2O)C1` (stereo not given), the cytotoxicity at 70.5 h is -3.95%.

Take `C=C(Br)CN(C)C1CCN(CCc2ccccn2)CC1`: the cytotoxicity at 70.5 h was -6.85%.

As to `Cc1nc(CN2CCCC(N(C)CC3(O)CCCCC3)C2)no1` (stereo not given), the cytotoxicity at 70.5 h was 0.0355%.

Turning to `CCc1noc(CN(C)CC(c2cccs2)N2CCOCC2)n1` (stereo not given), the cytotoxicity at 70.5 h is -1.63%.

With `Cc1noc(CN(C)CC(c2cccs2)N2CCOCC2)n1` (stereo not given), the cytotoxicity at 70.5 h was -4.96%.

For the compound `N#Cc1cc(F)ccc1CN1CCCCC1Cn1cccn1` (stereo not given), the cytotoxicity at 70.5 h was -1.56%.

Consider `N#Cc1ccc(CN2CCCC2Cn2cccn2)cc1` (stereo not given), for which the cytotoxicity at 70.5 h came out at 2.25%.

As for `CC1COCCN1C(=O)Nc1cnc2c(cnn2C(C)C)c1` (stereo not given), the cytotoxicity at 70.5 h was -2.52%.

Take `Cc1ncc(CN(C)CCO)c2cc(C(=O)c3ccc(Br)cc3)oc12`: the cytotoxicity at 70.5 h is -15.5%.

On to `COc1cc(CNCC(O)c2ccccc2)cc2c1OCO2` (stereo not given), for which the cytotoxicity at 70.5 h stood at 3.15%.

Take `COc1c(CNCCNC(=O)c2ccccc2)c(C)nn1C`: the cytotoxicity at 70.5 h was -1.1%.

As for `COc1c(CNCCNC(=O)c2cccc(C)c2)c(C)nn1C`, the cytotoxicity at 70.5 h was found to be 3.54%.
